In article PMC9775322, “An Integrated Analysis of Mechanistic Insights into Biomolecular Interactions and Molecular Dynamics of Bio-Inspired Cu(II) and Zn(II) Complexes towards DNA/BSA/SARS-CoV-2 3CL^pro by Molecular Docking-Based Virtual Screening and FRET Detection” (Biomolecules, 2022):

Legend:
[1] = tested on: NHDF Normal human dermal fibroblasts cell line; assay: MTT cell viability assay; assay type: cell-based; conditions: 72 h exposure
[2] = tested on: Salmonella enteric serovar typhi; assay: Agar disc diffusion antibacterial test; assay type: cell-based; conditions: B; for Inhibition %: (T–C)/T × 100
BSA = biological target: T1, BSA (Bos taurus, UniProt P02769); assay: BSA binding by UV–vis absorption titration; set-up: species or system bovine; conditions: for Δλ (nm) (blue shift of BSA band at 278 nm) / Chromism (% H) (hyperchromism): BSA 25 μM, compound 0–25 μM; for Chromism (% H) (hyperchromism): 278 nm; for Binding Constant Kapp by BH Method: BSA, UV–Vis titration; for ΔGb°: −RT ln Kapp, T = 298 K
T1 construct: purchased Sigma Aldrich
Procedure: UV–vis spectral titrations were performed with a 25 μM concentration of BSA at room temperature with a 5 mM Tris-HCl/50 mM NaCl buffer solution (pH: 7.4). When the sample concentrations (0–25 μM) increased in the same BSA concentration solution, the alteration in the absorption band at 278 nm was continuously monitored.
2.2.8. UV-Vis absorption titrations for the BSA binding assay
The test compound concentrations (0 –25 μM) were varied during the electronic absorption titrations, which were conducted at a fixed BSA concentration (25 μM) in aqueous media (pH = 7.2) at 25 °C. The property of BSA is also confirmed by the observation of a strong absorption band in the UV region at 278 nm. […] The increment of the test compound causes a gradual increase in the BSA absorption band, which leads to the […]
owing to non-covalent interaction of the test compound with BSA [33].
∆Amax = (A∞ - A0), ∆A = (Ax - A0), A0 , Ax and A∞ are denoted as the absorbance of free BSA, the absorbance of BSA in the increment concentrations of the compound, and the absorbance value of the fully bound form of bovine serum albumin with substance, respectively.

[3] = tested on: HepG2 Liver cancer cell line; assay: MTT cell viability assay; assay type: cell-based; conditions: 72 h exposure, at least three independent experiments
[4] = tested on: A549 Human lung cancer cell line; assay: MTT cell viability assay; assay type: cell-based; conditions: 72 h exposure, at least three independent experiments
Bacillus cereus = assay: Agar disc diffusion antibacterial test; conditions: for diameter of clear zone inhibition / Inhibition %: G, (+) Bacillus cereus; for diameter of clear zone inhibition: 20 µL of 100 µM on 6 mm disc, Control (DMSO) = 6 mm; for Inhibition %: (T–C)/T × 100
Pseudomonas aeruginosa = assay: Agar disc diffusion antibacterial test; conditions: for diameter of clear zone inhibition / Inhibition %: D, (-) Pseudomonas aeruginosa; for diameter of clear zone inhibition: 20 µL of 100 µM on 6 mm disc, Control (DMSO) = 6 mm; for Inhibition %: (T–C)/T × 100
[5] = Nitric oxide scavenging assay; assay type: biochemical; conditions: 546 nm
CT-DNA = assay: DNA binding by cyclic voltammetry; set-up: species or system calf; conditions: for Kb, Method II: Cp/Cf vs [DNA]; for Kb, Method III: Ip^2 vs (Ipo^2 − Ip^2)/[DNA]; for Kred/Koxi (Calcd): Nernst equation, Ant.log nEs°/0.0591, n = 1; for Kred/Koxi Found (I): from method I binding constants; for Kb, Method I, Oxi / Kb, Method I, Red: log (1/[DNA]) vs log (I/I0 − I); for Kb, Method I, Oxi: oxidation; for Kb, Method I, Red: reduction; for S (binding site size): method II
Procedure: The CV experiment was carried out for free substances at 10 µM at room temperature with a 5 mM Tris-HCl/50 mM NaCl buffer solution (pH: 7.4). While CT-DNA increases (0–10 µM) in each sample solution, shifts in potential, including variations in the anodic and cathodic peak currents, have been monitored.
2.2.7. Evaluation of DNA interaction properties using cyclic voltammetry technique The electrochemical analysis is a critical entity to examine the electron transfer reactions of the test compounds. With a scan rate of 0.1V, the CHI 620C electrochemical analyzer was utilized with a three-electrode system consisting of glassy carbon as the working electrode, Ag/AgCl as the reference electrode, and platinum wire as the counter/auxiliary electrode to monitor changes in peak current and peak potential during the interaction between test compound and DNA. The changes in peak current and peak potential further afford data on the binding constant as well as the mode of interaction for test compound –DNA adducts. In single-compartment cells of 5 –15 mL, electrochemical titrations for all test compounds were executed at 25 °C in the absence and presence of DNA. The solutions were then deoxygenated by passing them through N 2 before measurements were made. The electrochemical analysis for free compounds was executed at a 10 µM concentration in the presence of 5mM Tr is-HCl /50 mM NaCl (pH = 7.2) buffer solution. Changes in the anodic […]
and cathodic peak currents, as well as potential shifts, have been observed as CT-DNA concentrations in each solution of complexes rise from 1 to 10 µM [32].
I ) = log [DNA] + log Kb (S24)
The peak currents of the chemical in the absence and presence of deoxyribonucleic acid are designated as I0 and I, respectively.
Kb values for all samples were estimated through the linear regression plot of log (1/[DNA]) versus log (I/I0–I) by method-I. Equation (S26) was attained from equation (S25).
Cf and Cb are represented as the free substance concentration and DNA-interacted compound, respectively, and equation (S28) was obtained by comparing equations (S26) and (S27).
Ipa is denoted as the anodic peak current in amperes, n is represented as the number of electrons participating in the redox (M 1+/M2+) process (n=1), The activation coefficient (charge transfer coefficient) is shown by the symbol α. and the value is equal to 0.5, which is a typically supported approximation for numerous quasi-reversible systems.
2.3. DFT and molecular modelling studies
DFT calculations were performed to comprehend the electronic structure and reactivity of ligand (HL) and metal complexes ( 1b-2b) using the Gaussian 09 package [ 34]. Geometries were fully optimized both in the gas phase and methanol solution using B3LYP, and comparatively later with the CAM-B3LYP and M06-2X functionals. For each complex, the […]

[6] = tested on: MCF-7 Breast cancer cell line; assay: MTT cell viability assay; assay type: cell-based; conditions: 72 h exposure, at least three independent experiments
[7] = 20 µL of 100 µM on 6 mm disc, Control (DMSO) = 6 mm

T1 sequence (P02769 25-607): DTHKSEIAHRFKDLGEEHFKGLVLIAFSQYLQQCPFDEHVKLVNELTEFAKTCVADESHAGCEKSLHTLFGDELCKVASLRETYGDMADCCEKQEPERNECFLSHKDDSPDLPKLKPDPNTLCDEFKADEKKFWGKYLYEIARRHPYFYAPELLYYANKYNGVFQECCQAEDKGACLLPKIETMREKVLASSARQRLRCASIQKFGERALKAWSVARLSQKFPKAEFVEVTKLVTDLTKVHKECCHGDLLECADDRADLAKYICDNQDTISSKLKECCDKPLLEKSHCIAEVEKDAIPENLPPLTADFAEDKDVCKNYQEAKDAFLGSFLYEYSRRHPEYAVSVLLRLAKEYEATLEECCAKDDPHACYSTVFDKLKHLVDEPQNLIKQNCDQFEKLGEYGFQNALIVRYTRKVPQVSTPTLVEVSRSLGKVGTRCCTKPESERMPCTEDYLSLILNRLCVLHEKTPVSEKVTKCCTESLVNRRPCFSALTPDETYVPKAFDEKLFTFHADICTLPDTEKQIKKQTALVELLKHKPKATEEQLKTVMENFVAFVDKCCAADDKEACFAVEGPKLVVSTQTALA

Row | Structure (SMILES) | IC50 [1] [µM] | Inhibition % [2] [%] | Δλ (nm) (blue shift of BSA band at 278 nm) (BSA) | Chromism (% H) (hyperchromism) (BSA) [%] | ΔGb° (BSA) [kJmol^−1] | Inhibition % (Bacillus cereus) [%] | Inhibition % (Pseudomonas aeruginosa) [%] | % Inhibition, nitric oxide ([5]; 40 µM) [%] | % Inhibition, nitric oxide ([5]; 80 µM) [%] | % Inhibition, nitric oxide ([5]; 120 µM) [%] | % Inhibition, nitric oxide ([5]; 160 µM) [%] | % Inhibition, nitric oxide ([5]; 200 µM) [%] | % Inhibition, nitric oxide ([5]; 240 µM) [%] | Kb, Method II (CT-DNA) [M⁻¹] | Kb, Method III (CT-DNA) [M⁻¹] | Kred/Koxi (Calcd) (CT-DNA) | Kred/Koxi Found (I) (CT-DNA) | Kb, Method I, Oxi (CT-DNA) [M⁻¹] | Kb, Method I, Red (CT-DNA) [M⁻¹] | S (binding site size) (CT-DNA) [bp] | further results
1 | [Cu+2].[O-]c1ccccc1N=Cc1ccc(N2CCOCC2)cc1.[O-]c1ccccc1N=Cc1ccc(N2CCOCC2)cc1.c1cnc2c(c1)ccc1cccnc12 [(1b), [Cu^II(L)2(phen)]] | 72.6 ± 2.9 | 40 | 8 | 64.70 | −25.9330 | 40 | 33 | 18.03 | 25.43 | 35.67 | 42.86 | 52.29 | 66.21 | 35514 | 21695 | 3.2434 | 1.2053 | 17320 | 20878 | 0.267 | diameter of clear zone inhibition [2, 7]: 10 mm; Binding Constant Kapp by BH Method (BSA): 35140 M⁻¹; IC50 [3]: 30.9 ± 1.2 µM; IC50 [4]: 29.7 ± 1.2 µM; diameter of clear zone inhibition (Bacillus cereus): 10 mm; diameter of clear zone inhibition (Pseudomonas aeruginosa): 9 mm; IC50 [6]: 31.7 ± 1.3 µM
2 | [O-]c1ccccc1N=Cc1ccc(N2CCOCC2)cc1.[O-]c1ccccc1N=Cc1ccc(N2CCOCC2)cc1.[Zn+2].c1cnc2c(c1)ccc1cccnc12 [(2b), [Zn^II(L)2(phen)]] | 74.5 ± 3 | 40 | 8 | 62.16 | −24.7590 | 45 | 25 | 14.67 | 22.43 | 29.42 | 38.82 | 45.53 | 59.88 | 32242 | 18300 | 3.7609 | 1.1168 | 14610 | 16317 | 0.248 | diameter of clear zone inhibition [2, 7]: 10 mm; Binding Constant Kapp by BH Method (BSA): 21878 M⁻¹; IC50 [3]: 33.4 ± 1.4 µM; IC50 [4]: 32.1 ± 1.3 µM; diameter of clear zone inhibition (Bacillus cereus): 11 mm; diameter of clear zone inhibition (Pseudomonas aeruginosa): 08 mm; IC50 [6]: 32.5 ± 1.3 µM
3 | Oc1ccccc1N=Cc1ccc(N2CCOCC2)cc1 [(HL), 2-(4-morpholinobenzylideneamino)phenol] | – | 33 | 2 | 47.79 | −22.3387 | 33 | 25 | 11.42 | 18.26 | 24.28 | 33.21 | 40.53 | 51.62 | 2477 | 4837 | 2.0964 | 1.1125 | 5280 | 5874 | 0.446 | zone of inhibition at 100 µM ([2]; 20 µL of 100 µM on 6 mm disc, Control (DMSO) = 6 mm, read-out: diameter of clear zone inhibition): 9 mm; zone of inhibition at 100 µM (Bacillus cereus; Bacillus cereus, read-out: diameter of clear zone inhibition): 9 mm; zone of inhibition at 100 µM (Pseudomonas aeruginosa; Pseudomonas aeruginosa, read-out: diameter of clear zone inhibition): 8 mm
